Like-named read-outs stand apart in the source and are kept apart here.
Tests used:
[1] = target: T1, recombinant human PDE5 (Homo sapiens, UniProt O76074); test: IMAP fluorescence polarization phosphodiesterase assay (TAMRA-cGMP substrate); assay type: biochemical; conditions: for inhibition at 10 µM: read-out: %PDE5 inhibition at 10 μM; for IC50: 10 concentrations, at least two replicates per concentration, read-out: PDE5 inhibition IC50; for PDE5 inhibition, result in words: SAR discussion
T1 construct: purchased BPS Biosciences, San Diego, CA
Experimental: PDE activity was measured using a modification of the IMAP fluorescence polarization phosphodiesterase assay from Molecular Devices. The assay was modified to use tetramethylrhodamine- (TAMRA-) cGMP as substrate. PDE hydrolysis of the fluorescent labeled substrate allows it to bind the IMAP binding reagent, which results in increased FP. […] The assays were performed in 96-well microtiter plates using a reaction buffer containing 10 mM Tris-HCl (pH 7.2), 10 mM MgCl2, 0.05% NaN3, and 0.1% phosphate-free BSA as the carrier. Each well contained 20 μL of recombinant enzyme (5 units//mL, BPS Biosciences, San Diego, CA) and 10 μL test agent. The reaction was initiated by the addition of 10 μL of a substrate solution containing 50 nM TAMRA-cGMP. After incubating at room temperature for 60 minutes, the reaction was terminated by adding 120 μL of binding solution. FP was measured by a Perkin Elmer Envision plate reader.
Dose response curves were analyzed using Prism 4 software (GraphPad) to calculate IC50 values using a four-parameter logistic equation. All in vitro experiments involved dose-response analysis were repeated at least twice to confirm reproducibility of IC50 values.

[2] = screening dose 10 μM, triplicate

For `COC(=O)[C@H]1Cc2c([nH]c3ccccc23)[C@H](c2ccc(OC)cc2OC)N1` [Compound 2, (1S,3R) Methyl-1-(2,4-dimethoxyphenyl)-2,3,4,9-tetrahydro-1-H-pyrido[3,4-b]indole-3-carboxylate], the inhibition at 10 µM [1, 2] was 63% and the melting point was 146 to 147 °C.
Work on `COc1ccc([C@@H]2c3[nH]c4ccccc4c3C[C@H]3C(=O)N(c4ccc(Cl)cc4)C(=O)N23)c(OC)c1` [Compound 16, (5R,11aS)-2-(P-Chlorophenyl)-5-(2,4-dimethoxyphenyl)-5,6,11,11a-tetrahydro-1-H-imidazo[5,1-6,1]pyrido[3,4-b]indole-1,3-dione] yielded an inhibition at 10 µM [1, 2] of 63% and a melting point of 212 to 215 °C.
For `CCN1C(=O)[C@H]2Cc3c([nH]c4ccccc34)[C@@H](c3ccc(OC)cc3OC)N2C1=O` [Compound 5, (5R,11aR)-2-Ethyl-5-(2,4-dimethoxyphenyl)-5,6,11,11a-tetrahydro-1-H-imidazo[5,1-6,1]pyrido[3,4-b]indole-1,3-dione], the IC50 [1] was 360 nM, the “PDE5 inhibition, result in words” value [1] was “active PDE5 inhibitors” and the inhibition at 10 µM [1, 2] was 87%. The melting point was 216 to 218 °C.
Molecule `CCN1C(=O)[C@@H]2Cc3c([nH]c4ccccc34)[C@H](c3ccc(OC)cc3OC)N2C1=O` [Compound 7, (5S,11aS)-2-Ethyl-5-(2,4-dimethoxyphenyl)-5,6,11,11a-tetrahydro-1-H-imidazo[5,1-6,1]pyrido[3,4-b]indole-1,3-dione] has an inhibition at 10 µM [1, 2] of 54% and a melting point of 217 to 220 °C.
`COc1ccc([C@H]2c3[nH]c4ccccc4c3C[C@@H]3C(=O)N(C(C)(C)C)C(=O)N23)c(OC)c1` [Compound 10, (5S,11aR)-2-Tertiarybutyl-5-(2,4-dimethoxyphenyl)-5,6,11,11a-tetrahydro-1-H-imidazo[5,1-6,1]pyrido[3,4-b]indole-1,3-dione] showed an inhibition at 10 µM [1, 2] of 68% and a melting point of 191 to 193 °C.
In the case of `CCN1C(=O)[C@H]2Cc3c([nH]c4ccccc34)[C@H](c3ccc(OC)cc3OC)N2C1=O` [Compound 6, (5S,11aR)-2-Ethyl-5-(2,4-dimethoxyphenyl)-5,6,11,11a-tetrahydro-1-H-imidazo[5,1-6,1]pyrido[3,4-b]indole-1,3-dione], the IC50 [1] is reported as 720 nM, the “PDE5 inhibition, result in words” value [1] is reported as “active” and the inhibition at 10 µM [1, 2] is reported as 88%. It also gave a melting point of 190 to 193 °C.
With `CCN1C(=O)[C@@H]2Cc3c([nH]c4ccccc34)[C@@H](c3ccc(OC)cc3OC)N2C1=O` [Compound 8, (5R,11aS)-2-Ethyl-5-(2,4-dimethoxyphenyl)-5,6,11,11a-tetrahydro-1-H-imidazo[5,1-6,1]pyrido[3,4-b]indole-1,3-dione] the IC50 [1] was 360 nM, the “PDE5 inhibition, result in words” value [1] was “active PDE5 inhibitors” and the inhibition at 10 µM [1, 2] was 97%. It also gave a melting point of 192 to 195 °C.
In the case of `COc1ccc([C@H]2c3[nH]c4ccccc4c3C[C@H]3C(=O)N(C(C)(C)C)C(=O)N23)c(OC)c1` [Compound 11, (5S,11aS)-2-Tertiarybutyl-5-(2,4-dimethoxyphenyl)-5,6,11,11a-tetrahydro-1-H-imidazo[5,1-6,1]pyrido[3,4-b]indole-1,3-dione], the inhibition at 10 µM [1, 2] is reported as 46% and the melting point is reported as 103 to 106 °C.
Work on `C=CCN1C(=O)[C@@H]2Cc3c([nH]c4ccccc34)[C@@H](c3ccc(OC)cc3OC)N2C1=S` [Compound 19, (5R,11aS)-2-Allyl-1-oxo-5-(2,4-dimethoxyphenyl)-5,6,11,11a-tetrahydro-1H-imidazo[5,1-1,6]pyrido[3,4-b]indole-3(2H)-thione] yielded an IC50 [1] of 560 nM, an inhibition at 10 µM [1, 2] of 87% and a melting point of 224 to 227 °C.
Work on `COc1ccc([C@H]2c3[nH]c4ccccc4c3C[C@H]3C(=O)N(c4ccc(Cl)cc4)C(=O)N23)c(OC)c1` [Compound 15, (5S,11aS)-2-(P-Chlorophenyl)-5-(2,4-dimethoxyphenyl)-5,6,11,11a-tetrahydro-1-H-imidazo[5,1-6,1]pyrido[3,4-b]indole-1,3-dione] yielded an inhibition at 10 µM [1, 2] of 35% and a melting point of 135 to 138 °C.
In the case of `COc1ccc([C@H]2c3[nH]c4ccccc4c3C[C@@H]3C(=O)N(C)C(=S)N23)c(OC)c1` [Compound 18, (5S,11aR)-2-Methyl-1-oxo-5-(2,4-dimethoxyphenyl)-5,6,11,11a-tetrahydro-1-H-imidazo[5,1-1,6]pyrido[3,4-b]indole-3(2H)-thione], the inhibition at 10 µM [1, 2] is reported as 23% and the melting point is reported as 188 to 190 °C.
For `COC(=O)[C@@H]1Cc2c([nH]c3ccccc23)[C@@H](c2ccc(OC)cc2OC)N1` [Compound 4, (1R,3S) Methyl-1-(2,4-dimethoxyphenyl)-2,3,4,9-tetrahydro-1-H-pyrido[3,4-b]indole-3-carboxylate], the IC50 [1] was 6400 nM, the inhibition at 10 µM [1, 2] was 75% and the melting point was 148 to 150 °C.
In the case of `C=CCN1C(=O)[C@H]2Cc3c([nH]c4ccccc34)[C@H](c3ccc(OC)cc3OC)N2C1=S` [Compound 20, (5S,11aR)-2-Allyl-1-oxo-5-(2,4-dimethoxyphenyl)-5,6,11,11a-tetrahydro-1H-imidazo[5,1-6,6,1]pyrido[3,4-b]indole-3(2H)-thione], the inhibition at 10 µM [1, 2] is reported as 58% and the melting point is reported as 224 to 227 °C.
With `COc1ccc([C@@H]2c3[nH]c4ccccc4c3C[C@@H]3C(=O)N(C(C)(C)C)C(=O)N23)c(OC)c1` [Compound 9, (5R,11aR)-2-Tertiarybutyl-5-(2,4-dimethoxyphenyl)-5,6,11,11a-tetrahydro-1-H-imidazo[5,1-6,1]pyrido[3,4-b]indole-1,3-dione] the IC50 [1] was 2400 nM, the “PDE5 inhibition, result in words” value [1] was “active PDE5 inhibitors” and the inhibition at 10 µM [1, 2] was 83%. The melting point was 108 to 110 °C.
`COc1ccc([C@@H]2c3[nH]c4ccccc4c3C[C@@H]3C(=O)N(c4ccc(Cl)cc4)C(=O)N23)c(OC)c1` [Compound 13, (5R,11aR)-2-(P-Chlorophenyl)-5-(2,4-dimethoxyphenyl)-5,6,11,11a-tetrahydro-1H-imidazo[5,1-6,1]pyrido[3,4-b]indole-1,3-dione] gave an inhibition at 10 µM [1, 2] of 63% and a melting point of 134 to 136 °C.
In the case of `COC(=O)[C@@H]1Cc2c([nH]c3ccccc23)[C@H](c2ccc(OC)cc2OC)N1` [Compound 3, (1S,3S) Methyl-1-(2,4-dimethoxyphenyl)-2,3,4,9-tetrahydro-1-H-pyrido[3,4-b]indole-3-carboxylate], the inhibition at 10 µM [1, 2] is reported as 55% and the melting point is reported as 88 to 90 °C.
For `COc1ccc([C@@H]2c3[nH]c4ccccc4c3C[C@H]3C(=O)N(C(C)(C)C)C(=O)N23)c(OC)c1` [Compound 12, (5R,11aS)-2-Tertiarybutyl-5-(2,4-dimethoxyphenyl)-5,6,11,11a-tetrahydro-1-H-imidazo[5,1-6,1]pyrido[3,4-b]indole-1,3-dione], the IC50 [1] was 550 nM, the “PDE5 inhibition, result in words” value [1] was “active PDE5 inhibitors” and the inhibition at 10 µM [1, 2] was 87%. The melting point was 193 to 195 °C.
Molecule `COc1ccc([C@@H]2c3[nH]c4ccccc4c3C[C@H]3C(=O)N(C)C(=S)N23)c(OC)c1` [Compound 17, (5R,11aS)-2-Methyl-1-oxo-5-(2,4-dimethoxyphenyl)-5,6,11,11a-tetrahydro-1H-imidazo[5,1-6,1]pyrido[3,4-b]indole-3(2H)-thione] has an inhibition at 10 µM [1, 2] of 29% and a melting point of 188 to 191 °C.
`COc1ccc([C@H]2c3[nH]c4ccccc4c3C[C@@H]3C(=O)N(c4ccc(Cl)cc4)C(=O)N23)c(OC)c1` [Compound 14, (5S,11aR)-2-(P-Chlorophenyl)-5-(2,4-dimethoxyphenyl)-5,6,11,11a-tetrahydro-1-H-imidazo[5,1-6,1]pyrido[3,4-b]indole-1,3-dione] showed an inhibition at 10 µM [1, 2] of 60% and a melting point of 214 to 216 °C.
With `COC(=O)[C@H]1Cc2c([nH]c3ccccc23)[C@@H](c2ccc(OC)cc2OC)N1` [Compound 1, (1R, 3R) Methyl-1-(2,4-dimethoxyphenyl)-2,3,4,9-tetrahydro-1-H-pyrido[3,4-b]indole-3-carboxylate] the IC50 [1] was 2500 nM, the inhibition at 10 µM [1, 2] was 77% and the melting point was 86 to 88 °C.
In the case of `CN1CC(=O)N2[C@H](c3ccc4c(c3)OCO4)c3[nH]c4ccccc4c3C[C@@H]2C1=O` [Tadalafil, tadalafil, reference compound], the inhibition at 10 µM [1] is reported as 99%.
